From paper PMC7319900 (Nature, 2020)

Key:
BaiCD from C. hiranonis = biological target: T1, BaiCD from C. hiranonis (Peptacetobacter hiranonis, UniProt Q9RB48); experiment: LC-MS of acid-precipitated purified enzyme; assay type: binding; conditions: as purified after expression and lysis with added flavin
T1 sequence (Q9RB48 1-639): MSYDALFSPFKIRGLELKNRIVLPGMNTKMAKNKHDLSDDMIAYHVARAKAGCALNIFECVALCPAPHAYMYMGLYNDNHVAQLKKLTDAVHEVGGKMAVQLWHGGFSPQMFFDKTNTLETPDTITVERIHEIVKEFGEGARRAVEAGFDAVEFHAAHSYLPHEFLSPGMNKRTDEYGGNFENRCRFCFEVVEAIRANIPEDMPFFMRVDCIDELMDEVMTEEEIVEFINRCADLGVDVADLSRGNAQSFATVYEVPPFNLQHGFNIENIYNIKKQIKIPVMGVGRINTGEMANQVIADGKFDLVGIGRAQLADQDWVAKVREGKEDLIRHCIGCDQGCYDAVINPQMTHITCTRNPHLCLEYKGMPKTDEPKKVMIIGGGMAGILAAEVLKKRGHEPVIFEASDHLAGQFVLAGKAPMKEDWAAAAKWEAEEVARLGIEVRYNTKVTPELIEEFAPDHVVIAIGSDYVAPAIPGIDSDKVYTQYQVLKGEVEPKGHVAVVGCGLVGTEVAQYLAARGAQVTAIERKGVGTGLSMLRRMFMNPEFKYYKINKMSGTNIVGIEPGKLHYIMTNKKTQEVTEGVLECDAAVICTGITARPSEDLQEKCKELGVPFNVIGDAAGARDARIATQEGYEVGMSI

BaiH from C. scindens = biological target: T2, BaiH from C. scindens ([Clostridium] scindens, UniProt P32370); experiment: LC-MS of acid-precipitated purified enzyme; assay type: binding; conditions: as purified after expression and lysis with added flavin
T2 sequence (P32370 1-661): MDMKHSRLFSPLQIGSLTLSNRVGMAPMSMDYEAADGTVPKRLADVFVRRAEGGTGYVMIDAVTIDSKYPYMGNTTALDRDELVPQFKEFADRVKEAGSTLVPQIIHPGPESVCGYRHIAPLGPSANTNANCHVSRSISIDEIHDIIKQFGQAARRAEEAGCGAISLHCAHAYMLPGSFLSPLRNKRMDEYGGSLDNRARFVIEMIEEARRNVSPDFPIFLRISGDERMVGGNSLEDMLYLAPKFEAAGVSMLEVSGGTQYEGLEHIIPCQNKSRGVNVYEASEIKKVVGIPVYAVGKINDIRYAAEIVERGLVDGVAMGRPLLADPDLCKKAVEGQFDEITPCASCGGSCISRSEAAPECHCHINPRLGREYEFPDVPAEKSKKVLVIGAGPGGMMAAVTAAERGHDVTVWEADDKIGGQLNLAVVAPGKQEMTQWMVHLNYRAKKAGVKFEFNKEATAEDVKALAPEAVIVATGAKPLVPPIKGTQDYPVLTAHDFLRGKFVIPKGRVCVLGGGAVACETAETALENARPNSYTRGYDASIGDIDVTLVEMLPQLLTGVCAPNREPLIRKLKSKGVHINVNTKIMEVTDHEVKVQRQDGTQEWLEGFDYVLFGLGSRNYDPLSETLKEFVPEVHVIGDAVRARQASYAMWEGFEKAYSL

BaiA2 from C. scindens = biological target: T3, BaiA2 from C. scindens ([Clostridium] scindens, UniProt P19337); experiment: LC-MS extracted ion chromatograms; assay type: biochemical; conditions: reduction to DCA; experiment performed once
T3 sequence (P19337 1-249): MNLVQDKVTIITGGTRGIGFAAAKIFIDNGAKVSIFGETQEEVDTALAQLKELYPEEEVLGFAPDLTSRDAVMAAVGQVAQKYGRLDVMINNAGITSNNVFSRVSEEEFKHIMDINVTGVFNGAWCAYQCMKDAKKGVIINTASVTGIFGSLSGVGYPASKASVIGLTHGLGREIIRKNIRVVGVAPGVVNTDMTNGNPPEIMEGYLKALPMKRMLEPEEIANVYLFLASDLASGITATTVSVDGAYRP

Structure (SMILES)	LC-MS of acid-precipitated purified enzyme; UV-vis (BaiCD from C. hiranonis)	LC-MS of acid-precipitated purified enzyme; UV-vis (BaiH from C. scindens)	LC-MS extracted ion chromatograms (BaiA2 from C. scindens)
Cc1cc2nc3c(=O)[nH]c(=O)nc-3n(C[C@H](O)[C@H](O)[C@H](O)COP(=O)(O)OP(=O)(O)OC[C@H]3O[C@@H](n4cnc5c(N)ncnc54)[C@H](O)[C@@H]3O)c2cc1C [FAD]	The presence of FAD and FMN were confirmed by precipitating purified enzyme with sulfuric acid	The presence of FAD and FMN were confirmed by precipitating purified enzyme with sulfuric acid	
Cc1cc2nc3c(=O)[nH]c(=O)nc-3n(C[C@H](O)[C@H](O)[C@H](O)COP(=O)(O)O)c2cc1C [FMN]	The presence of FAD and FMN were confirmed by precipitating purified enzyme with sulfuric acid	The presence of FAD and FMN were confirmed by precipitating purified enzyme with sulfuric acid	
C[C@H](CCC(=O)O)[C@H]1CC[C@H]2[C@@H]3CC[C@@H]4CC(=O)CC[C@]4(C)[C@H]3C[C@H](O)[C@]12C [compound 8, 3-oxo-deoxycholic acid]			conversion of 3-oxo-DCA to DCA by recombinant BaiA2
